What was measured:
[1] = system: MCF-7 breast cancer cells; experiment: MTT cell viability assay, MCF-7; assay type: cell-based, human
Procedure: All of the synthesized compounds (7a–f) were studied to test their anticancer activity toward the estrogen receptor-positive (ER+) MCF-7 and the triple-negative MDA-MB-231 breast cancer cells (ER-, PR- and HER-2/Neu not overexpressed) and A2058 melanoma cells. Cells were incubated for 72 h with different concentrations of the compounds, and then the viability was checked by the MTT assay. […] Moreover, we checked the cytotoxicity of all of the synthesized compounds against the human MCF-10A non-malignant breast epithelial cells and mouse BALB/3T3 embryonic fibroblasts, in order to evaluate their selectivity on cancer cells.
The used cell lines (breast cancer cell lines MCF-7 and MDA-MB-231, melanoma cell line A2058 and human mammary epithelial cell line MCF-10A) were obtained from American Type Culture Collection (ATCC, Manassas, VA, USA) and cultured as already reported. The mouse BALB/3T3 embryonic fibroblasts were also purchased from American Type Culture Collection (ATCC, Manassas, VA, USA) and cultured in DMEM high glucose supplemented with 10% bovine calf serum (BCS) and 100 U mL^−1 penicillin/streptomycin.
MTT assay (Sigma Aldrich (St. Louis, MO, USA)) was performed for evaluating the in vitro anticancer activities of the compounds, as previously indicated. Different concentrations (0.1, 1, 10, 25, 50, and 100 μM) of the compounds were employed, with a 72 h endpoint. IC50 values were obtained from the percent (%) of control using GraphPad Prism 9 (GraphPad Software, La Jolla, CA, USA).

[2] = target: T1, hTopo II (Homo sapiens, UniProt P11388); experiment: hTopo II decatenation assay; assay type: biochemical; parameters: key to Topoisomerase Inhibition hTopo II: (+) inhibition; (−) no inhibition; (+/−) partial inhibition
T1 construct: purchased TopoGEN, Port Orange, FL
Procedure: The linear kDNA (Figure 4a,b, lanes A), decatenated kDNA (Figure 4a,b, lanes B) and the catenated circles of kDNA (Figure 4a,b, lanes C) were used as markers. A parallel experiment was performed using ellipticine as reference molecule.
hTopo I relaxation assays were performed by incubating the substrate (supercoiled pHOT1) with the recombinant hTopo I (TopoGEN, Port Orange, FL, USA) and compounds, as indicated in the supplier protocol (TopoGEN, Port Orange, FL, USA), with some revisions. hTopo II decatenation assays were conducted by incubating the kinetoplast DNA substrate (kDNA) with the hTopo II (TopoGEN, Port Orange, FL) and studied compounds, as indicated in the supplier procedures (TopoGEN, Port Orange, FL, USA), with some changes as in [80].
Figure 4 hTopo II decatenation assay. […] The same experiment was performed using ellipticine (c). Lane 1, decatenated kDNA marker; lane 2, linear kDNA marker; lane 3, CTRL (DMSO), lanes 4–5, ellipticine 10 and 50 µM, respectively.

[3] = system: MCF-7 cells; experiment: Mitochondria and cytochrome c immunostaining; assay type: cell-based, human; settings: at IC50 value, 24 h
Excerpt: In order to establish whether the observed cell death could be ascribed to the induction of the apoptotic pathway, we performed immunostaining assays using an anti-cytochrome c (cyt c) antibody and the mitochondrial probe MitoTracker Deep Red FM, which would allow us to verify whether cyt c was released from mitochondria to the cell cytoplasm or not. In Figure 6, panels B,C, it is possible to visualize the intracellular localization of cyt c (green fluorescence) and mitochondria (red fluorescence). […] Indeed, as visible in the overlay channel (panel D), the two fluorescence signals (red and green) were no longer superimposable.
Cells grown on glass coverslips in full medium were serum-deprived for 24 h, then the compound (or only vehicle) was added (24 h, 7e at its IC50 value). Next, cells were incubated with a staining solution containing MitoTracker® Deep Red FM probe (MitoTracker® Mitochondrion-Selective Probes, Invitrogen European Headquarters, Paisley PA4 9RF, UK; fluorescence excitation = 644, fluorescence emission = 665) for 20 min, at 37 °C. After a PBS wash, cells were fixed (cold methanol, 15 min at −20 °C) and incubated with the mouse anti-cytochrome c (556 433) primary antibody, purchased from BD, diluted in the blocking solution (4 °C/overnight), as described in [60]. […]

[4] = system: caspase-9; experiment: Caspase-Glo assay, caspase-9; assay type: cell-based, human; settings: MCF-7 cells, at IC50 value, 24 h, vs vehicle
Procedure: Once established that mitochondria were damaged and cyt c released into the cytoplasm, we evaluated the ability of compound 7e treatment (used at its IC50 value) in modulating caspase activity.
The caspase-Glo Assay (Caspase-Glo® 3/7, 8 and 9 Assay Systems, Promega Corporation, Madison, WI) was used to detect caspase-3/7, -8 and -9 activities, as reported in [82]. Briefly, cells were grown in white-walled 96-well plates, treated with the compound, and 100 µL of each […] was added.
Figure 7 Caspase activity in MCF-7 cells. […] Columns mean, bars SD; * p < 0.001; n.s., not significant (treated vs. CTRL).

T1 sequence (P11388 whole entry): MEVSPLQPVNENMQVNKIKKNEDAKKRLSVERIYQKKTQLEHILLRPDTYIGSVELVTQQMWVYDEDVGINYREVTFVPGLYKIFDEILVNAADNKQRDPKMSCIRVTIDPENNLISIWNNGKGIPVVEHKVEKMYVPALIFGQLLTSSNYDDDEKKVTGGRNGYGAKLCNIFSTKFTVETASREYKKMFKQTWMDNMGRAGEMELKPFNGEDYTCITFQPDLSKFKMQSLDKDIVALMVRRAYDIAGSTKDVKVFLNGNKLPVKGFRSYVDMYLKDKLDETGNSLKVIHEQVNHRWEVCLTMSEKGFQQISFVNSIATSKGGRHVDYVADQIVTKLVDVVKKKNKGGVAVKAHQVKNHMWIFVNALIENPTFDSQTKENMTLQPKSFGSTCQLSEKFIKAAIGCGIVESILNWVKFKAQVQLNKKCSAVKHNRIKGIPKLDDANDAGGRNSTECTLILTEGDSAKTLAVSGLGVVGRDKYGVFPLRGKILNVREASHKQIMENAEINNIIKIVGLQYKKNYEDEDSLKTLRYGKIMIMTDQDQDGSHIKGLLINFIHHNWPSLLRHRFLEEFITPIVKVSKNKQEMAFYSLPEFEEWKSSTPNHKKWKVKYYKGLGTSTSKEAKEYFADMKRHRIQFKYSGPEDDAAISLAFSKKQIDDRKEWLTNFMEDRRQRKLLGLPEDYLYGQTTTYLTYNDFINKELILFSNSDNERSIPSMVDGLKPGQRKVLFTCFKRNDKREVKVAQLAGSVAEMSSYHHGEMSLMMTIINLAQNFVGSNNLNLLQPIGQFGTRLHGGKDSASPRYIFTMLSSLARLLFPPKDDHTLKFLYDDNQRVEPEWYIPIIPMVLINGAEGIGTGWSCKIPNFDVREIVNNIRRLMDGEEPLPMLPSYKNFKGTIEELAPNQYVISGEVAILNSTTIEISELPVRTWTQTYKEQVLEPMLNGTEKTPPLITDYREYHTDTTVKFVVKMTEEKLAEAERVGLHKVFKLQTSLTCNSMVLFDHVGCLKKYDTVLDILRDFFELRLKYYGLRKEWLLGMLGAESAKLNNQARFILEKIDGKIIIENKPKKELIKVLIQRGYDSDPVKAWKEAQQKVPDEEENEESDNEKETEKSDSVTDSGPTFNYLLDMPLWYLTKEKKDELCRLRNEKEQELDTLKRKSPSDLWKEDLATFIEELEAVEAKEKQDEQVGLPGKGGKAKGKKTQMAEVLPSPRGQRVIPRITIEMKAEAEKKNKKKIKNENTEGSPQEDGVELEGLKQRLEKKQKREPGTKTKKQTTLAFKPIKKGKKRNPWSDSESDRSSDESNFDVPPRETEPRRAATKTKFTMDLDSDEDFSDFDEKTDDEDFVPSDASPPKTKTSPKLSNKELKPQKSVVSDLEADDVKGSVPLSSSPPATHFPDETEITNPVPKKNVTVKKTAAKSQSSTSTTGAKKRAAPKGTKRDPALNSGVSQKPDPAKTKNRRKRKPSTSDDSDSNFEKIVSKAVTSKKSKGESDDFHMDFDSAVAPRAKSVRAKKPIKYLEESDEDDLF

IC50 ([1]; Homo sapiens, MCF7, MTT, 72 h): 3.1 ± 0.6 µM
Topoisomerase Inhibition hTopo II ([2]; 10 µM): −
Topoisomerase Inhibition hTopo II ([2]; 50 µM): +
caspase-9 activity [4]: noticeable increase
SMILES: COc1cc(/C=C2\SC(=O)N(CC(=O)Nc3nc(-c4ccc(Br)cc4)cs3)C2=O)cc(OC)c1OC [compound 7e, (Z)-2-(5-(3,4,5-Trimethoxybenzylidene)thiazolidin-2,4-dion-3-yl)-N-(4-(4-bromophenyl)thiazol-2-yl)acetamide]
fold more active against MCF-7 than against mouse BALB/3T3 embryonic fibroblasts ([1]; MCF-7 vs BALB/3T3 IC50): about 11 fold
cytochrome c release from mitochondria into the cytoplasm [3]: cyt c was released into the cell cytoplasm
